In ChEMBL document CHEMBL4402526, “Design and Synthesis of Fungal-Selective Resorcylate Aminopyrazole Hsp90 Inhibitors” (J Med Chem, 2020):
The source made the active and inactive calls. How the calls were made is not given here.

What was measured:
Cryptococcus neoformans = experiment: Antifungal activity against Cryptococcus neoformans H99 assessed as fungal growth inhibition at <= […] uM measured after 48 hrs by resazurin assay; assay type: functional, organism-based
Candida albicans = experiment: Antifungal activity against Candida albicans clinical isolate 2 assessed as fungal growth inhibition at <= […] uM measured after 48 hrs by resazurin assay; assay type: functional, organism-based

SMILES: COc1ccc(Cn2nc(-c3ccoc3)cc2Nc2cc(O)cc(O)c2C(=O)N2Cc3cn[nH]c3C2)cc1
- Activity (Cryptococcus neoformans): Active
- Activity (Candida albicans): Active

SMILES: O=C(c1c(O)cc(O)cc1Nc1ccnn1Cc1cccnc1)N1Cc2cccnc2C1
- Activity (Cryptococcus neoformans): Active
- Activity (Candida albicans): Active

SMILES: COc1ccc(Cn2nc(C3CCCC3)cc2Nc2cc(O)cc(O)c2C(=O)N2Cc3cn[nH]c3C2)cc1
- Activity (Cryptococcus neoformans): Active
- Activity (Candida albicans): Active

SMILES: Cc1cc(Nc2cc(O)cc(O)c2C(=O)N2Cc3ccccc3C2)n(Cc2ccccc2C)n1
- Activity (Cryptococcus neoformans): Active
- Activity (Candida albicans): Active

SMILES: CC(C)Cn1nccc1Nc1cc(O)cc(O)c1C(=O)N1Cc2cccnc2C1
- Activity (Cryptococcus neoformans): Active
- Activity (Candida albicans): Active

SMILES: COc1ccc(Cn2nc(C3CC3)cc2Nc2cc(O)cc(O)c2C(=O)N2Cc3cn[nH]c3C2)cc1
- Activity (Cryptococcus neoformans): Active
- Activity (Candida albicans): Active

SMILES: Cn1nc(-c2ccc(C(C)(C)C)cc2)cc1Nc1cc(O)cc(O)c1C(=O)N1Cc2ccccc2C1
- Activity (Cryptococcus neoformans): Active
- Activity (Candida albicans): Active

SMILES: COc1ccc(Cn2nc(C)cc2Nc2cc(O)cc(O)c2C(=O)N2Cc3ccc(OCCN(C)C)cc3C2)cc1
- Activity (Cryptococcus neoformans): Active
- Activity (Candida albicans): Active

SMILES: CC(C)(C)n1nc(-c2ccccc2)cc1Nc1cc(O)cc(O)c1C(=O)N1Cc2cn[nH]c2C1
- Activity (Cryptococcus neoformans): Active
- Activity (Candida albicans): Active

SMILES: O=C(c1c(O)cc(O)cc1Nc1cc(-c2ccccc2)nn1C1CCCCC1)N1Cc2cn[nH]c2C1
- Activity (Cryptococcus neoformans): Active
- Activity (Candida albicans): Active

SMILES: CC(C)Cn1nc(-c2ccccc2)cc1Nc1cc(O)cc(O)c1C(=O)N1Cc2cn[nH]c2C1
- Activity (Cryptococcus neoformans): Active
- Activity (Candida albicans): Active

SMILES: COc1ccc(Cn2nc(-c3ccccc3)cc2Nc2cc(O)cc(O)c2C(=O)N2Cc3ccc(OCCN(C)C)cc3C2)cc1
- Activity (Cryptococcus neoformans): Active
- Activity (Candida albicans): Active

SMILES: CC(C)c1cc(Nc2cc(O)cc(O)c2C(=O)N2Cc3ccccc3C2)n(C)n1
- Activity (Cryptococcus neoformans): Active
- Activity (Candida albicans): Active

SMILES: COc1ccc(Cn2nc(C3CCCC3)cc2Nc2cc(O)cc(O)c2C(=O)N2Cc3cccnc3C2)cc1
- Activity (Cryptococcus neoformans): Active
- Activity (Candida albicans): Active

SMILES: COc1ccc(Cn2ncc(-c3ccccc3)c2Nc2cc(O)cc(O)c2C(=O)N2Cc3ccccc3C2)cc1
- Activity (Cryptococcus neoformans): Active
- Activity (Candida albicans): Active

SMILES: O=C(c1c(O)cc(O)cc1Nc1ccnn1Cc1ccco1)N1Cc2cccnc2C1
- Activity (Cryptococcus neoformans): Active
- Activity (Candida albicans): Active

SMILES: COc1ccc(Cn2ncc(Cc3ccccc3)c2Nc2cc(O)cc(O)c2C(=O)N2Cc3ccccc3C2)cc1
- Activity (Cryptococcus neoformans): Active
- Activity (Candida albicans): Active

SMILES: COc1ccc(-c2cc(Nc3cc(O)cc(O)c3C(=O)N3Cc4cn[nH]c4C3)n(C)n2)cc1
- Activity (Cryptococcus neoformans): Active
- Activity (Candida albicans): Active

SMILES: O=C(c1c(O)cc(O)cc1Nc1ccnn1CC1CCCCC1)N1Cc2ccccc2C1
- Activity (Cryptococcus neoformans): Active
- Activity (Candida albicans): Active

SMILES: O=C(c1c(O)cc(O)cc1Nc1ccnn1C1CCCCC1)N1Cc2cn[nH]c2C1
- Activity (Cryptococcus neoformans): Active
- Activity (Candida albicans): Active

SMILES: O=C(c1c(O)cc(O)cc1Nc1ccnn1Cc1ccccc1)N1Cc2ccccc2C1
- Activity (Cryptococcus neoformans): Active
- Activity (Candida albicans): Active

SMILES: O=C(c1c(O)cc(O)cc1Nc1ccnn1Cc1cccnc1)N1Cc2ccccc2C1
- Activity (Cryptococcus neoformans): Active
- Activity (Candida albicans): Active

SMILES: O=C(c1c(O)cc(O)cc1Nc1ccnn1CC1CCCCC1)N1Cc2cn[nH]c2C1
- Activity (Cryptococcus neoformans): Active
- Activity (Candida albicans): Active

SMILES: Cn1nccc1Nc1cc(O)cc(O)c1C(=O)N1Cc2cn[nH]c2C1
- Activity (Cryptococcus neoformans): Active
- Activity (Candida albicans): Active

SMILES: COc1ccc(Cn2nc(C)cc2Nc2cc(O)cc(O)c2C(=O)N2Cc3ccc(NC4CCN(C)CC4)cc3C2)cc1
- Activity (Cryptococcus neoformans): Active
- Activity (Candida albicans): Active

SMILES: CC(C)(C)n1nc(-c2ccccc2)cc1Nc1cc(O)cc(O)c1C(=O)N1Cc2cccnc2C1
- Activity (Cryptococcus neoformans): Active
- Activity (Candida albicans): Active

SMILES: CCc1cc(Nc2cc(O)cc(O)c2C(=O)N2Cc3cn[nH]c3C2)n(Cc2ccc(OC)cc2)n1
- Activity (Cryptococcus neoformans): Active
- Activity (Candida albicans): Active

SMILES: CC(C)Cn1nccc1Nc1cc(O)cc(O)c1C(=O)N1Cc2ccccc2C1
- Activity (Cryptococcus neoformans): Active
- Activity (Candida albicans): Active

SMILES: COc1ccc(Cn2nccc2Nc2cc(O)cc(O)c2C(=O)N2Cc3ccccc3C2)cc1
- Activity (Cryptococcus neoformans): Active
- Activity (Candida albicans): Active

SMILES: COc1ccc(Cn2nc(-c3ccccc3)cc2Nc2cc(O)cc(O)c2C(=O)N2Cc3cn[nH]c3C2)cc1
- Activity (Cryptococcus neoformans): Active
- Activity (Candida albicans): Active

SMILES: Cn1nc(-c2ccc(C(F)(F)F)cc2)cc1Nc1cc(O)cc(O)c1C(=O)N1Cc2cn[nH]c2C1
- Activity (Cryptococcus neoformans): Active
- Activity (Candida albicans): Active

SMILES: O=C(c1c(O)cc(O)cc1Nc1ccnn1Cc1ccccc1)N1Cc2cccnc2C1
- Activity (Cryptococcus neoformans): Active
- Activity (Candida albicans): Active

SMILES: CC(C)n1nccc1Nc1cc(O)cc(O)c1C(=O)N1Cc2cn[nH]c2C1
- Activity (Cryptococcus neoformans): Active
- Activity (Candida albicans): Active

SMILES: Cc1ccc(-c2cc(Nc3cc(O)cc(O)c3C(=O)N3Cc4cccnc4C3)n(C)n2)cc1
- Activity (Cryptococcus neoformans): Active
- Activity (Candida albicans): Active
